Results reported in PubChem BioAssay (NCI).
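Each compound was tested at five concentrations against cells in 96-well plates for 48 hours. The concentration for 50% growth inhibition is given as GI50. TGI marks complete inhibition of growth.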

Assays:
Experiment in all cases: NCI anticancer screen, dose series, 48 h
EKVX NSCLC = tested on: EKVX NSCLC
786-0 renal = tested on: 786-0 renal
NCI-H226 lung = tested on: NCI-H226 lung
SNB-75 CNS = tested on: SNB-75 CNS
BT-549 breast = tested on: BT-549 breast
HCC-2998 colon = tested on: HCC-2998 colon
SF-295 CNS = tested on: SF-295 CNS
K-562 leukemia = tested on: K-562 leukemia
ACHN renal = tested on: ACHN renal
SK-MEL-2 melanoma = tested on: SK-MEL-2 melanoma

Row | SMILES | GI50 (EKVX NSCLC) | TGI (EKVX NSCLC) | GI50 (786-0 renal) | TGI (786-0 renal) | GI50 (NCI-H226 lung) | TGI (NCI-H226 lung) | GI50 (SNB-75 CNS) | TGI (SNB-75 CNS) | GI50 (BT-549 breast) | TGI (BT-549 breast) | GI50 (HCC-2998 colon) | TGI (HCC-2998 colon) | GI50 (SF-295 CNS) | TGI (SF-295 CNS) | GI50 (K-562 leukemia) | TGI (K-562 leukemia) | GI50 (ACHN renal) | TGI (ACHN renal) | GI50 (SK-MEL-2 melanoma) | TGI (SK-MEL-2 melanoma)
1 | NC(=O)C1(N2CCCCC2)CCN(CCCC(=O)c2ccc(F)cc2)CC1 | 6.01 µM | > 100 µM | 4590 nM | 43.2 µM | 2340 nM | 8.81 µM | 147 nM | > 100 µM | 44.3 nM | 14.1 µM | 1780 nM | 6.19 µM | 2700 nM | > 100 µM | 280 nM | > 100 µM | 12200 nM | > 100 µM | 92.5 nM | > 100 µM
2 | COc1ccccc1-c1cc(=O)c2ccc(C)nc2[nH]1 | – | > 100 µM | > 100000 nM | > 100 µM | – | > 100 µM | – | – | – | > 100 µM | – | > 100 µM | > 100000 nM | > 100 µM | – | > 100 µM | – | > 100 µM | – | > 100 µM
3 | Cc1ccccc1Nc1nc2c(s1)C(=O)c1ccccc1C2=O | – | 21 µM | – | 8.47 µM | – | 32.8 µM | – | 29.9 µM | – | 6.57 µM | – | 32.2 µM | – | 32.9 µM | – | > 36.2 µM | – | 14.6 µM | – | 31.5 µM
4 | Cn1c([N+](=O)[O-])cnc1/C=C1\Oc2cc(Cl)ccc2C1=O | – | – | 1080 nM | 4.75 µM | 2050 nM | 8.41 µM | 1800 nM | 9.38 µM | 996 nM | 4.9 µM | 2040 nM | 4.81 µM | 2720 nM | > 42.7 µM | 1360 nM | 21 µM | 209 nM | – | 436 nM | 2 µM
5 | O=C(/C=C/c1ccccc1)CC(c1ccccc1)N1CCOCC1 (stereo not drawn) | 9.52 µM | 22.3 µM | 1950 nM | 3.61 µM | 5390 nM | 24.2 µM | 12500 nM | 27.7 µM | 1860 nM | 3.62 µM | 1900 nM | 3.54 µM | 2700 nM | 10.5 µM | 3400 nM | 21.8 µM | 2030 nM | 4.4 µM | 26500 nM | 66.9 µM
6 | COc1ccc(/C=C2/CCc3cc4ccc(OC)cc4[o+]c32)c(O)c1 | 12.5 µM | 26.8 µM | 3970 nM | 19.8 µM | 12300 nM | 25.7 µM | 12900 nM | 27.9 µM | 12100 nM | 31.7 µM | 15300 nM | 32.6 µM | 16300 nM | 38 µM | 11400 nM | 93.8 µM | 4150 nM | 15.8 µM | 11800 nM | 25.3 µM
7 | Cc1ncc(C(=O)Nc2ccc(CN3CCN(C)CC3)c(C(F)(F)F)c2)cc1C#Cc1cnc(NC2CC2)c2ncccc12 | 0.659 µM | 1.21 µM | 650 nM | 1.16 µM | 2100 nM | 6.46 µM | 1810 nM | 5.75 µM | 4280 nM | 8.56 µM | 1270 nM | 2.88 µM | 747 nM | 1.68 µM | 21.1 nM | 0.476 µM | 577 nM | 1.04 µM | 1660 nM | 5.54 µM
